Earlier results as cited in US10716774B1, “Pharmaceutical compositions containing isotretinoin with improved dissolution profile and enhanced stability” (Yale Pharmaceuticals LLC, priority 2018, dated 2020).

Conditions: after multiple dosing, in man

## CC1=C(/C=C/C(C)=C/C=C/C(C)=C/C(=O)O)C(C)(C)CCC1=O [4-oxo-isotretinoin]
  plasma concentration relative to that of the parent drug: about 4 fold
